Laboratory results from patent US20240182454A1, “Polycyclic Compound for Inhibiting RNA Helicase DHX33, and Application of Compound” (Shenzhen KeYe Life Technologies, Co., Ltd, priority 2021, published 2024).

Tested on: U251-MG cells
Test: Half-maximal cell-inhibitory concentration on U251-MG cells (CCK-8)
Format: cell-based
Details: Homo sapiens, U-251, U251-MG cells (DHX33-overexpressing), 48 hours incubation, read-out: IC50, half-maximal inhibitory concentrations of compounds on U251-MG cell
Protocol: U251-MG cells were purchased from the cell bank of the Chinese Academy of Sciences. Cells were cultured in MEM medium containing 10% fetal bovine serum (FBS), 2 mM L-glutamine, streptomycin and penicillin. The growth conditions were set as follows: a humidified cell incubator (37° C., 5% CO2). Cells were passaged every 3 days and were discarded after 10 passages.
U251-MG cells (a DHX33-overexpressing cancer cell strain) were seeded on a 96-well plate at 1×10^4 cells/100 μl/well. After the cells were completely attached, the compounds were added to the cell culture medium at a concentration of 5 nM, 10 nM, 25 nM, 50 nM, 100 nM, 250 nM, 500 nM, 1000 nM, 2000 nM, 5000 nM, 10 μM or 20 μM, and the resulting mixture was uniformly mixed with a multichannel pipette. After the cells were incubated with the compound for 48 hours, CCK-8 reagent (Yeasen Biotechnology (Shanghai) Co., Ltd.) was added to the medium in the 96-well plate in accordance with the standard procedure. After being incubated for 2 hours, the plate was read with a microplate reader (OD=450 nm). The experiment was repeated three times, the inhibiton curve of the compound at different concentrations was plotted, and the half-maximal inhibitory concentration (IC50) of the compound was calculated.

| SMILES | IC50 [µM] |
| --- | --- |
| COc1ccc2nc(NC(=O)c3cc(C)n(Cc4cccs4)c3C)[nH]c2c1 [AB29552] | 1 to 5 |
| COc1ccc2nc(NC(=O)c3cc(C)n(-c4oc(C)nc4C#N)c3C)[nH]c2c1 [AB29522] | 0.1 to 1 |
| COc1ccc2nc(N(C)C(=O)c3cc(C)n(-c4sc(C)cc4C#N)c3C)[nH]c2c1 [AB29560] | 0.1 to 1 |
| Cc1cc(C#N)c(-n2c(C)cc(C(=O)Nc3nc4ccc(Cl)cc4[nH]3)c2C)s1 [AB29557] | 0.1 to 1 |
| COCn1c(NC(=O)c2cc(C)n(-c3sc(C)cc3C#N)c2C)nc2ccc(OC)cc21 [AB29562] | 0.1 to 1 |
| Cc1cc(C#N)c(-n2c(C)cc(C(=O)Nc3nc4ccncc4[nH]3)c2C)s1 [AB29555] | 1 to 5 |
| COc1cccc2nc(NC(=O)c3cc(C)n(-c4sc(C)cc4C#N)c3C)[nH]c12 [AB29559] | 1 to 5 |
| COc1ccc2nc(C(=O)Nc3cc(C)n(-c4sc(C)cc4C#N)c3C)[nH]c2c1 [AB29540] | 0.1 to 1 |
| Cc1cc(C#N)c(-n2c(C)cc(C(=O)Nc3nc4cccnc4[nH]3)c2C)s1 [AB29554] | 1 to 5 |
| Cc1cc(C#N)c(-n2c(C)cc(C(=O)Nc3nc4ccc(F)cc4[nH]3)c2C)s1 [AB29556] | 0.1 to 1 |
| COc1ccc2nc(NC(=O)c3cc(C)n(-c4sc(C)cc4C#N)c3C)n(C)c2c1 [AB29561] | 0.1 to 1 |
| Cc1cc(C#N)c(-n2c(C)cc(C(=O)Nc3nc4ccccc4[nH]3)c2C)s1 [AB29553] | 0.1 to 1 |
| COc1cc2[nH]c(NC(=O)c3cc(C)n(-c4sc(C)cc4C#N)c3C)nc2cn1 [AB29558] | < 0.1 |

Second part, the molecule after the results:

| IC50 [µM] | SMILES |
| --- | --- |
| 0.1 to 1 | COCn1c(NC(=O)c2cc(C)n(-c3sc(C)cc3C#N)c2C)nc2cc(OC)ccc21 [AB29563] |
| 1 to 5 | Cc1cc(C#N)c(-n2c(C)cc(C(=O)Nc3nc4ccc(OC(F)(F)F)cc4[nH]3)c2C)s1 [AB29572] |
| 0.1 to 1 | COc1cc2cc(NC(=O)c3cc(C)n(-c4sc(C)cc4C#N)c3C)[nH]c2cn1 [AB29573] |
| 1 to 5 | COc1ccc2c(c1)nc(NC(=O)c1cc(C)n(-c3sc(C)cc3C#N)c1C)n2COC(=O)C(C)(C)C [AB29565] |
| < 0.1 | COc1cnc2nc(NC(=O)c3cc(C)n(-c4sc(C)cc4C#N)c3C)[nH]c2c1 [AB29566] |
| 1 to 5 | COc1ccc2nc(NC(=O)c3cc(C)n(-c4sc(C)cc4C#N)c3C)n(COC(=O)C(C)(C)C)c2c1 [AB29564] |

Target: T1, DHX33 protein (Mus musculus, UniProt Q80VY9)
T1 construct: 0.25 μg of purified full-length DHX33 protein; made in house; host or cells: E. coli BL-21pLysS (DE3)
T1 sequence (Q80VY9 1-698): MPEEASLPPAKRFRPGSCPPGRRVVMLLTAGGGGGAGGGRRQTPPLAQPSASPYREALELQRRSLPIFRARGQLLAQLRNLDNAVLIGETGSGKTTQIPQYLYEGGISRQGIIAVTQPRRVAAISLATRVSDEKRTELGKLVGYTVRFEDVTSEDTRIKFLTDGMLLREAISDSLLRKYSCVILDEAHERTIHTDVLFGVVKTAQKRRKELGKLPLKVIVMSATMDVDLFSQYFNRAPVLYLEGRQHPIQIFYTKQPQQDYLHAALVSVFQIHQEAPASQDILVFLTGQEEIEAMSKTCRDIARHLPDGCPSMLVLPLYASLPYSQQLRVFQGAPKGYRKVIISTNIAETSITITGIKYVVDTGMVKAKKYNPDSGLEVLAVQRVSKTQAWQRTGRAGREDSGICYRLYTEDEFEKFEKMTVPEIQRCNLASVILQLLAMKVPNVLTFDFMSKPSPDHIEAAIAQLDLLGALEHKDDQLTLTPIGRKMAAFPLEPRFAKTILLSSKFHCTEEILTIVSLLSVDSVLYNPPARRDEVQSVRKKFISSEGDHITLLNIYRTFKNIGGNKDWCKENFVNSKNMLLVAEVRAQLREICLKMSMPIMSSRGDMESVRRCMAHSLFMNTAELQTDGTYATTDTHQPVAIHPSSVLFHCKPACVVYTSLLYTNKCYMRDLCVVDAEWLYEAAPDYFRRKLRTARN
Test: Inhibition of the helicase activity of DHX33 protein in vitro
Format: biochemical
Details: recombinant DHX33 protein, compound 1-1000 nM, 37° C. 60 minutes; read-out: IC50, inhibitory effects of the compounds on the helicase activity of DHX33 protein
Protocol: Biochemistry. 2019;58 (4):250-8. RNA helicase gene (mouse DHX33 gene) was cloned into a pET32M-3C vector (between BamH I/Not I restriction sites). Afterward, the plasmid was transformed into BL-21pLysS (DE3) E. coli. 0.5 mM isopropyl 1-thio-P-D-galactopyranoside (IPTG) was added, and the expression of the recombinant protein was induced at 16° C. for 16 hours. Cells were allowed to precipitate and were resuspended in a cell lysis buffer [50 mM Tris-HCl (pH7.2), 150 mM NaCl, 1% Triton X-100, and 50 mM imidazole supplemented with a protease inhibitor]. Thereafter, cells were subjected to ultrasonic treatment and centrifuged at a rotation speed of 13000 rpm for 25 minutes. The supernatant was incubated with the nickel-nitrilotriacetic acid beads equilibrated in Tris buffer, followed by sufficient washing. Thereafter, the purified protein was eluted with a solution of 300 mM imidazole in Tris buffer, and was then subjected to dialysis against an imidazole-free Tris buffer at 4° C. overnight.
The components involved in the reaction for testing the helicase activity were added to a 96-well opaque white plate. The method was outlined as follows. The 96-well plate was coated with neutravidin at a final concentration of 10 μg/mL (100 μL/well) overnight at 4° C. Afterwards, the neutravidin-coated plate was blocked with 100 μL of 0.1% (w/v) BSA (dissolved in normal PBS) at 22° C. for 2 hours. After washing, a DNA duplex (2.5 ng) that was resulted from the annealing of two single-stranded DNA oligonucleotides (the sequence of one single strand was biotin-labeled 5′-[…]-3; and the sequence of the other single strand was DIG-labeled 5′-[…]-3′) [the annealing reaction was carried out in PBS (pH 7.0) containing 1M NaCl] was added, and the resulting mixture was incubated at 22° C. for 4 hours. After the addition of 90 μL of the reaction mixture, the helicase reaction was initiated [0.25 μg of purified full-length DHX33 protein, dissolved in 25 mM 4-MOPS (pH 7.0), 5 mM ATP, 2 mM DTT, 3 mM MnCl2 and 100 μg/mL BSA]. The reaction was conducted at 37° C. for 60 minutes. After being washed, each well was incubated with a blocking solution [10% (w/v) BSA in 0.1 M maleic acid and 0.15 M NaCl (pH 7.5)] for 30 minutes, and was then incubated with 20 μL of antibody solution (anti-DIG-AP, Roche, in blocking buffer) for 30 minutes. After being washed with 100 μL of detection buffer [0.1 M Tris-HCl and 0.1 M NaCl (pH 9.5)], each well was added with 1 μL of chemiluminescent substrate (CSPD-0.25 mM), and the plate was incubated at 17° C. for 5 minutes. […] The remaining DIG-AP marker control in each well was counted for 10 minutes by a luminescence multi-well plate reader (Enspire, PerkinElmer). Higher reading indicated weaker helicase activity. […]

| IC50 [µM] | SMILES |
| --- | --- |
| ≥ 0.4 | COc1cccc2nc(NC(=O)c3cc(C)n(-c4sc(C)cc4C#N)c3C)[nH]c12 [AB29559] |
| 0.02 to 0.1 | Cc1cc(C#N)c(-n2c(C)cc(C(=O)Nc3nc4ccc(F)cc4[nH]3)c2C)s1 [AB29556] |
| ≥ 0.4 | Cc1oc(-n2c(C)cc(/C=C(\C#N)c3nc4ccccc4[nH]3)c2C)c(C#N)c1C [Compound as control, reference compound] |
| < 0.02 | COc1cc2[nH]c(NC(=O)c3cc(C)n(-c4sc(C)cc4C#N)c3C)nc2cn1 [AB29558] |
